Data on 17 compounds can be found in paper PMC6273488, “Synthesis and Biological Evaluation of Benzochromenopyrimidinones as Cholinesterase Inhibitors and Potent Antioxidant, Non-Hepatotoxic Agents for Alzheimer’s Disease” (Molecules, 2016).

Read-outs that look alike come from different tables or passages of the source. Some results are limits rather than exact numbers.

In data set [1] the target is T1, Electrophorus electricus AChE (EeAChE) (Electrophorus electricus, UniProt O42275).
T1 construct: purified AChE from Electrophorus electricus (Type V-S, Sigma-Aldrich); purchased Sigma-Aldrich Type V-S
Briefly: Inhibition of EeAChE (Ellman's assay). The following applies: mean ± SEM, at least three independent experiments. The format is biochemical. The procedure:
(§1) For the preliminary screening of the inhibitory potencies, Electrophorus electricus AChE (EeAChE) and horse serum BuChE (eqBuChE) were used following the Ellman’s assay.
(§2) Assessment of the inhibitory power of BCPOs was performed following the spectrophotometric method of Ellman using purified AChE from Electrophorus electricus (Type V-S, Sigma-Aldrich) or BuChE from horse serum (lyophilized powder, Sigma-Aldrich). Enzymes were first dissolved in 0.1 M phosphate buffer (pH 8.0) and then aliquoted in small vials for easy handling. Compounds stock solutions in DMSO (10 mM) were diluted when necessary with DMSO to prepare appropriate dilutions of each compound. The assay was performed in a final volume of 3 mL of a 0.1 M phosphate-buffered solution at pH 8.0, containing 5,5′-dithiobis-2-nitrobenzoic acid (DTNB, 2625 µL, 0.35 mM, final concentration), EeAChE (29 µL, 0.035 U/mL final concentration) or eqBuChE (60 µL, 0.05 U/mL final concentration) tested compound (3 µL, different concentrations) and 1% (w/v) Bovine Albumin Serum phosphate-buffered (pH 8.0) solution (BSA, 40 µL). The inhibition in comparison to control without compound was determined by pre-incubating this blend at room temperature with each compound at nine different concentrations for 10 min. Then, acetylthiocholine iodide (105 µL, 0.35 mM, final concentration) or butyrylthiocholine iodide (150 µL, 0.5 mM final concentration) was added and incubated for another 15 min at rt. […] Calculation of IC50 values was performed with GraphPad Prism 5. Each concentration was measured in triplicate. Data are expressed as mean ± SEM.
On the technique in general: Ellman's reagent forms a yellow product with free thiols.

In data set [2] the target is T2, horse serum BuChE (eqBuChE) (Equus caballus, UniProt P81908).
T2 construct: BuChE from horse serum (lyophilized powder, Sigma-Aldrich); purchased Sigma-Aldrich; host or cells: horse serum
Briefly: Inhibition of eqBuChE (Ellman's assay). In kind it is biochemical. The following applies: 10 µM compound. The method, then: as §1, §2

Data set [3] is described as follows: Oxygen radical absorbance capacity by fluorescence (ORAC-FL). The following applies: mean ± SD. The method, then: Trolox was used as standard, fluorescein as fluorescent probe and 2,2′-azobis(2-amidinopropane) dihydrochloride (AAPH) as the peroxyl radical source. Ferulic acid was used as a positive control.
The antioxidant power of BCPOs was determined following the ORAC-FL method using fluorescein as the fluorescent probe. (±)-6-Hydroxy-2,5,7,8-tetramethylchromane-2-carboxylic acid (Trolox), fluorescein (FL) and AAPH were bought from Sigma-Aldrich (Saint Louis, MO, USA). A Varioskan Flash plate reader with built-in injectors (Thermo Scientific, Waltham, MA, USA) was used. The final volume reaction mixture was 200 µL and the reaction was carried out at 37 °C in 75 mM phosphate buffer (pH 7.4). The tested compounds and Trolox standard were dissolved in DMSO to 10 mM and further diluted in phosphate buffer. The final concentrations were 0.1–1 µM for the tested compounds and 1–8 µM for Trolox standard. The blank was composed of 120 µL of FL, 60 µL of AAPH and 20 µL of phosphate buffer (pH = 7.4) and was added in each assay. The antioxidant (20 µL) and fluorescein (FL, 120 µL, final concentration of 70 nM) were incubated in a black 96-well microplate Nunc, purchazed from Thermo Fisher Scientific, Ecublens, Switzerland) for 15 min at 37 °C. Then, AAPH, 60 µL, final concentration of 12 mM) solution was added quickly using the built-in injector. […] The microplate was automatically shaken prior to each reading. All the experiments were made in triplicate and at least three different assays were performed for each sample.
Using MS Excel software, regression equations were extrapolated by plotting the net AUC against the antioxidant concentration. The ORAC values were then obtained by dividing the slope of the latter curve between the slope of the Trolox curve obtained in the same assay. Final ORAC values were expressed as Trolox equivalents. Data are expressed as mean ± SD.

The conditions of data set [4]: ORAC-FL, cited from earlier work.
Another data set is described as follows: in vitro. The following applies: for Papp: PAMPA, pH 7.4. The procedure: Penetration across the BBB is an essential property for compounds targeting the CNS. […] The filter membrane of the donor plate was coated with PBL (Polar Brain Lipid, Avanti, AL, USA) in dodecane (4 µL of 20 mg/mL PBL in dodecane) and the acceptor well was filled with 300 µL of PBS pH 7.4 buffer ([…]). Tested compounds were dissolved first in DMSO and that diluted with PBS pH 7.4 to reach the final concentration 100 µM in the donor well. […] 300 µL of the donor solution was added to the donor wells ([…]) and the donor filter plate was carefully put on the acceptor plate so that coated membrane was “in touch” with both donor solution and acceptor buffer. Test compound diffused from the donor well through the lipid membrane (Area = 0.28 cm^2) to the acceptor well. The concentration of the drug in both donor and the acceptor wells was assessed after 3, 4, 5 and 6 h of incubation in quadruplicate using the UV plate reader Synergy HT (Biotek, Winooski, VT, USA) at the maximum absorption wavelength of each compound.

T1 sequence (O42275 24-633): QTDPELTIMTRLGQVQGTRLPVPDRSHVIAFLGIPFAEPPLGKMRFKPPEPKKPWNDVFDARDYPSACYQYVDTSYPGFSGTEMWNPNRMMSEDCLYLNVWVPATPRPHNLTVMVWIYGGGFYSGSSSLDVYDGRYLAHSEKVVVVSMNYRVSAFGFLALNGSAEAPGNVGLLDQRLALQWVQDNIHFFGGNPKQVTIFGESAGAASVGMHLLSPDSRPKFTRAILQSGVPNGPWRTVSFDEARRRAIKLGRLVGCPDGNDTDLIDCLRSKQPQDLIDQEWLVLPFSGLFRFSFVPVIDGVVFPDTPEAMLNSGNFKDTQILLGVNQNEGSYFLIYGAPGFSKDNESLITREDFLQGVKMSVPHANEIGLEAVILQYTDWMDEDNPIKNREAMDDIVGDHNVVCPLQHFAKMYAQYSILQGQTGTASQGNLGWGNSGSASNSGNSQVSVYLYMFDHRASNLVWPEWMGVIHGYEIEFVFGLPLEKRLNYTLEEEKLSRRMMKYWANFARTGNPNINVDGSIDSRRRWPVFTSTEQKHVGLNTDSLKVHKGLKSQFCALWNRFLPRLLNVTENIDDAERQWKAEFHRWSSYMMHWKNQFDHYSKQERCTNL
T2 sequence (P81908 whole entry): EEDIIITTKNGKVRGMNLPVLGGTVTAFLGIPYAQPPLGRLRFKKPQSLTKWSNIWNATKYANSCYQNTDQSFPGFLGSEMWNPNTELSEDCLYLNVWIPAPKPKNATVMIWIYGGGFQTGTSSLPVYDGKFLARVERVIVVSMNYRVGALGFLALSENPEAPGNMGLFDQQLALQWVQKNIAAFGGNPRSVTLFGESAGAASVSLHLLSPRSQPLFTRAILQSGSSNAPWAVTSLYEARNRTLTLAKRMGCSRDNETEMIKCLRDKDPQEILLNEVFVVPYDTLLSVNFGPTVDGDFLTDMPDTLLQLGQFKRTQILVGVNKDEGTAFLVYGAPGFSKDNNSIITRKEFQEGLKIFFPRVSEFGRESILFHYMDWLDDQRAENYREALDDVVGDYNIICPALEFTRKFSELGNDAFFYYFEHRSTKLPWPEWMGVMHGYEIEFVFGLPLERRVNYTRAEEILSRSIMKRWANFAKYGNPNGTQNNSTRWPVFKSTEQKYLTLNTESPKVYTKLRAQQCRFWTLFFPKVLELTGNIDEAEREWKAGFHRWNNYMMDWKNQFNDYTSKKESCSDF

As a reminder, the IC50 is the midpoint of a concentration-inhibition curve. A higher IC50 goes with lower potency. For orientation: inhibition means the percentage by which the read-out fell short of the control. For the compound `O=c1c2c(nc3n1CCC3)Oc1ccc3ccccc3c1C2c1ccccc1` (centres unmarked) [3Aa, 14-Phenyl-10,11-dihydro-14H-benzo[5,6]chromeno[2,3-d]pyrrolo[1,2-a]pyrimidin-13(9H)-one], half-maximal inhibition in data set [1] (IC50) required 518 ± 87.9 nM. Also, in data set [2], the inhibition at 10 µM stood at 12.1 ± 1.4%. The ORAC in data set [3] worked out at 2.6 ± 0.1 Trolox equivalents.

In data set [1], `O=c1c2c(nc3n1CCCCC3)Oc1ccc3ccccc3c1C2c1ccccc1` (centres unmarked) [3Ac, 16-Phenyl-10,11,12,13,-tetrahydro-16H-benzo[5,6]chromeno[2′,3′,4,5]pyrimido[1,2-a]azepin-15(9H)-one] returned an IC50 of 301 ± 6.5 nM. The inhibition at 10 µM in data set [2] was 28.4 ± 7.3%. For the same compound, the ORAC in data set [3] was determined as 2.5 ± 0.2 Trolox equivalents.

In the case of `COc1cccc(C2c3c(nc4n(c3=O)CCCCC4)Oc3ccc4ccccc4c32)c1` (centres unmarked) [3Bc, 16-(3′-Methoxyphenyl)-10,11,12,13-tetrahydro-16H-benzo[5,6]chromeno[2′,3′,4,5]pyrimido[1,2-a]azepin-15(9H)-one], the IC50 in data set [1] is 108 ± 7.2 nM. The inhibition at 10 µM in data set [2] is below 10%. Further, in data set [3], the ORAC was 3.5 ± 0.3 Trolox equivalents.

With `Cc1ccc(C2c3c(nc4n(c3=O)CCC4)Oc3ccc4ccccc4c32)cc1` (centres unmarked) [3Ca, 14-(4′-Methylphenyl)-10,11-dihydro-14H-benzo[5,6]chromeno[2,3-d]pyrrolo[1,2-a]pyrimidin-13(9H)-one], the IC50 in data set [1] came out at 112 ± 21.7 nM. In data set [2], this compound registered an inhibition at 10 µM of 17.4 ± 1.8%. Moreover, the ORAC in data set [3] is 2.7 ± 0.3 Trolox equivalents.

As for `Cc1ccc(C2c3c(nc4n(c3=O)CCCCC4)Oc3ccc4ccccc4c32)cc1` (centres unmarked) [3Cc, 16-(4’-Methylphenyl)-10,11,12,13-tetrahydro-16H-benzo[5,6]chromeno[2′,3′,4,5]pyrimido[1,2-a]azepin-15(9H)-one], inhibition in data set [1] was half-maximal at 167 ± 7.8 nM (IC50). The inhibition at 10 µM in data set [2] is below 10%. Besides, the ORAC in data set [3] turned out to be 3.1 ± 0.2 Trolox equivalents.

Regarding `O=c1c2c(nc3n1CCC3)Oc1c(ccc3ccccc13)C2c1ccccc1` (centres unmarked) [4Aa, 7-Phenyl-11,12-dihydro-7H-benzo[7,8]chromeno[2,3-d]pyrrolo[1,2-a]pyrimidin-8(10H)-one], it took 318 ± 26 nM to reach half-maximal inhibition in data set [1] (IC50). Further, in data set [2], the inhibition at 10 µM turned out to be 23.1 ± 3.1%. In data set [3], this compound displayed an ORAC of 2.1 ± 0.1 Trolox equivalents.

With `O=c1c2c(nc3n1CCCC3)Oc1c(ccc3ccccc13)C2c1ccccc1` (centres unmarked) [4Ab, 7-Phenyl-10,11,12,13-tetrahydro-7H-benzo[7,8]chromeno[2,3-d]pyrido[1,2-a]pyrimidin-8-one], half-maximal inhibition in data set [1] (IC50) was put at 384 ± 19.4 nM. Besides, in data set [2], 10 µM produced 54.6 ± 1.8% inhibition. Moreover, the ORAC in data set [3] is reported as 2.3 ± 0.2 Trolox equivalents.

`O=c1c2c(nc3n1CCCCC3)Oc1c(ccc3ccccc13)C2c1ccccc1` (centres unmarked) [4Ac, 7-Phenyl-11,12,13,14-tetrahydro-7H-benzo[7,8]chromeno[2′,3′,4,5]pyrimido[1,2-a]azepin-8(10H)-one] came in with a half-inhibitory concentration (IC50) in data set [1] of 290 ± 8.3 nM. The inhibition at 10 µM in data set [2] stood at 24.2 ± 3.1%. Further, in data set [3], the ORAC came to 2.5 ± 0.1 Trolox equivalents.

Turning to `COc1cccc(C2c3ccc4ccccc4c3Oc3nc4n(c(=O)c32)CCC4)c1` (centres unmarked) [4Ba, 7-(3′-Methoxyphenyl)-11,12-dihydro-7H-benzo[7,8]chromeno[2,3-d]pyrrolo[1,2-a]pyrimidin-8(10H)-one], it took 327 ± 38.9 nM to reach half-maximal inhibition in data set [1] (IC50). Besides, in data set [2], the inhibition at 10 µM was 38 ± 1.6%. The compound also showed an ORAC in data set [3] of 3.8 ± 0.1 Trolox equivalents.

As for `COc1cccc(C2c3ccc4ccccc4c3Oc3nc4n(c(=O)c32)CCCC4)c1` (centres unmarked) [4Bb, 7-(3′-Methoxyphenyl)-10,11,12,13-tetrahydro-7H-benzo[7,8]chromeno[2,3-d]pyrido[1,2-a]pyrimidin-8-one], in data set [1], the IC50 was determined as 153 ± 3.1 nM. Also, the inhibition at 10 µM in data set [2] was below 10%. The compound also gave an ORAC in data set [3] of 3.7 ± 0.2 Trolox equivalents.

On to `COc1cccc(C2c3ccc4ccccc4c3Oc3nc4n(c(=O)c32)CCCCC4)c1` (centres unmarked) [4Bc, 7-(3′-Methoxyphenyl)-11,12,13,14-tetrahydro-7H-benzo[7,8]chromeno[2′,3′,4,5]pyrimido[1,2-a]azepin-8(10H)-one], for which the IC50 in data set [1] amounted to 195 ± 6.2 nM. This compound also returned an inhibition at 10 µM in data set [2] of 31.1 ± 2.1%. This compound showed an ORAC in data set [3] of 3.4 ± 0.2 Trolox equivalents.

Consider `Cc1ccc(C2c3ccc4ccccc4c3Oc3nc4n(c(=O)c32)CCC4)cc1` (centres unmarked) [4Ca, 7-(4′-Methylphenyl)-11,12-dihydro-7H-benzo[7,8]chromeno[2,3-d]pyrrolo[1,2-a]pyrimidin-8(10H)-one], for which inhibition in data set [1] was half-maximal at 116 ± 6.2 nM (IC50). The inhibition at 10 µM in data set [2] is 26.8 ± 2.9%. In data set [3], this compound came in with an ORAC of 3.2 ± 0.1 Trolox equivalents.

Consider `Cc1ccc(C2c3ccc4ccccc4c3Oc3nc4n(c(=O)c32)CCCC4)cc1` (centres unmarked) [4Cb, 7-(4′-Methylphenyl)-10,11,12,13-tetrahydro-7H-benzo[7,8]chromeno[2,3-d]pyrido[1,2-a]pyrimidin-8-one], for which half-maximal inhibition in data set [1] (IC50) was put at 193 ± 18.7 nM. In data set [2], this compound yielded an inhibition at 10 µM of 24.4 ± 1.2%. Besides, in data set [3], the ORAC came out at 2.9 ± 0.1 Trolox equivalents.

Turning to `Cc1ccc(C2c3ccc4ccccc4c3Oc3nc4n(c(=O)c32)CCCCC4)cc1` (centres unmarked) [4Cc, 17-(4′-Methylphenyl)-11,12,13,14-tetrahydro-7H-benzo[7,8]chromeno[2′,3′,4,5]pyrimido[1,2-a]azepin-8(10H)-one], the IC50 in data set [1] came to 174 ± 5.9 nM. Besides, in data set [2], the inhibition at 10 µM was below 10%. This compound displayed an ORAC in data set [3] of 3.6 ± 0.2 Trolox equivalents.

As for `COc1cc(/C=C/C(=O)O)ccc1O` [Ferulic acid], the ORAC in data set [4] was 3.7 ± 0.1 [22] Trolox equivalents; in data set [4] (listed as ferulic acid) it was 3.7 Trolox equivalents.

The Papp is a coefficient for how fast a substance crosses the barrier. Regarding `CN1C(C(=O)Nc2ccccn2)=C(O)c2ccccc2S1(=O)=O` [Piroxicam, reference compound], the apparent permeability (Papp) in “in vitro” was found to be 2.2 ± 0.15 ×10⁻⁶ cm/s. Further, the “BBB Penetration Estimation CNS (+/−)” value in “in vitro” (PAMPA-BBB class) is “CNS (+/−) (‘CNS (+/−) (BBB permeability uncertain); Pe (10^−6 cm·s^−1) from 4.0 to 2.0)”.

As for `CCN(C)C(=O)Oc1cccc([C@H](C)N(C)C)c1` [Rivastigmine, reference compound], the apparent permeability coefficient (Papp) in “in vitro” is 6.6 ± 0.5 ×10⁻⁶ cm/s.
